The record followed here is ChEMBL document CHEMBL1201862, “PubChem BioAssay data set” (2004).

Assay [1] deals with T1, Short transient receptor potential channel 4 (Mus musculus, UniProt Q9QUQ5).
T1 sequence (Q9QUQ5 whole entry): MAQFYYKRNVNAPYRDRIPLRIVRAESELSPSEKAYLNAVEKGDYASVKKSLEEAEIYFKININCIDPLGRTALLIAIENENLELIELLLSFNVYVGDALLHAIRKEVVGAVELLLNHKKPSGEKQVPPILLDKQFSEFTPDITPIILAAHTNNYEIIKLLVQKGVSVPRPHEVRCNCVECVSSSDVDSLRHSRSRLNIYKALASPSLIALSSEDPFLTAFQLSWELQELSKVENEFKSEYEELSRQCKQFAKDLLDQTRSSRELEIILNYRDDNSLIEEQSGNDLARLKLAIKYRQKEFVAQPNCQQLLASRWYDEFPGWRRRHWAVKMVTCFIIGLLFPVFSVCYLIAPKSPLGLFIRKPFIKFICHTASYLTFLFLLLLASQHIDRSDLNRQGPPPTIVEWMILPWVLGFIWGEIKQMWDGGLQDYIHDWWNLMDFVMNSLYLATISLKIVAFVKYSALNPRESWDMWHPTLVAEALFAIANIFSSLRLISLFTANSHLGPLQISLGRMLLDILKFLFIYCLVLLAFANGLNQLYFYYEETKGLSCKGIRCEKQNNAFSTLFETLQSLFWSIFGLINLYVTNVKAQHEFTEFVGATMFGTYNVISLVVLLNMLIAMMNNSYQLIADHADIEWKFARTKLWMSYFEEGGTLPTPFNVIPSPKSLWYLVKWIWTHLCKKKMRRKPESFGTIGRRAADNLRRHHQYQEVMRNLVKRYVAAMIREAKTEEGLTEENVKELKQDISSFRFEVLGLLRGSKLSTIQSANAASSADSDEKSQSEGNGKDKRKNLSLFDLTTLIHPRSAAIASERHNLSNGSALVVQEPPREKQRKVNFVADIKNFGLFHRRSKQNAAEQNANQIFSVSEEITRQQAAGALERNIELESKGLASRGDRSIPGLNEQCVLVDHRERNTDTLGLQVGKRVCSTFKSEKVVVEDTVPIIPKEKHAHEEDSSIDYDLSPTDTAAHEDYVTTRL
In words: block of DAMGO-driven TRPC4 calcium entry – cell-based, HEK293 TRPC4/mu-opioid, Fluo-4 calcium, dose response (AID 434942).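 Further: potency of inhibitors blocking the TRPC4 calcium response.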 The format is functional.

The target in assay [2] is T1, Short transient receptor potential channel 4. The experiment in a line: calcium entry via TRPC4 opening agents – cell-based, HEK293 TRPC4/mu-opioid, Fluo-4 calcium, dose response (AID 434937). It is filed as functional.
Assay [3] deals with T2, Replicative DNA helicase DnaB (Mycobacterium tuberculosis, UniProt P9WMR3).
T2 sequence (P9WMR3 whole entry): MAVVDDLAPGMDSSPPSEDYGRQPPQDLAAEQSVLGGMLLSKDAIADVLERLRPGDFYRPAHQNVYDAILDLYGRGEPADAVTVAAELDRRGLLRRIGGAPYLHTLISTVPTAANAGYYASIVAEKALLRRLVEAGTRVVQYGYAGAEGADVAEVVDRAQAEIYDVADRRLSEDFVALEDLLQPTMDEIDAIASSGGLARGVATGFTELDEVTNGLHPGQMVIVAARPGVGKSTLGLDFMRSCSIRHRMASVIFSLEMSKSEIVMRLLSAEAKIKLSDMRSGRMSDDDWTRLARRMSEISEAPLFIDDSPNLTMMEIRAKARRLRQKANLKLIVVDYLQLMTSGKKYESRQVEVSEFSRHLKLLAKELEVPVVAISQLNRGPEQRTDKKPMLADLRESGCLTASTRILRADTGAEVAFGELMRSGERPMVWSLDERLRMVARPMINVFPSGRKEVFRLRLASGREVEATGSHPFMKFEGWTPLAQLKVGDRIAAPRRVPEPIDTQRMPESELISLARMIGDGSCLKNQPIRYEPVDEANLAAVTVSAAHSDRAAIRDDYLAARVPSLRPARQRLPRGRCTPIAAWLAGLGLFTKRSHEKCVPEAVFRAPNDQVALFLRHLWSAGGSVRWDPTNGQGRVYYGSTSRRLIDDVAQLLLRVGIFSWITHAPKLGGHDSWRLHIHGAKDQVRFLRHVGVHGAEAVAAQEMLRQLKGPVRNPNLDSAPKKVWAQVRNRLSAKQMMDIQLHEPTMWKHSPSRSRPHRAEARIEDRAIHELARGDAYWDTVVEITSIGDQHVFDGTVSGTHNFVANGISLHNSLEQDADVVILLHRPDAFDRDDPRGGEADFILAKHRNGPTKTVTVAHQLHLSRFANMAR
The experiment in a line: DnaB intein splicing inhibitors, dose response, biochemical, cell-free fluorescence (AID 449749). The format is functional.

Assay [4] has as its target DNA dC->dU-editing enzyme APOBEC-3G (Homo sapiens, UniProt Q9HC16). The experiment in a line: Dose Response confirmation of small molecule APOBEC3G DNA Deaminase Inhibitors via a fluorescence-based single-stranded DNA deaminase assay. [Related pubchem assays (depositor defined):AID493012, AID493028]. The format is functional.
The target in assay [5] is DNA dC->dU-editing enzyme APOBEC-3A (Homo sapiens, UniProt P31941). In words: A3A deaminase inhibition for selectivity – biochemical, dose response (AID 504722). The format is functional.
Sequence of DNA dC->dU-editing enzyme APOBEC-3A (P31941 whole entry): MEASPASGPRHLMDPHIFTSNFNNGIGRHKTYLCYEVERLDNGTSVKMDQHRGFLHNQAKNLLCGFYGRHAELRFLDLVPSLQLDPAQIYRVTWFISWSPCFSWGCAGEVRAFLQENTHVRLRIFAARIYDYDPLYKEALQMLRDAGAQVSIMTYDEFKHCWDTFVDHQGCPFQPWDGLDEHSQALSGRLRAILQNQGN
Another assay addresses T3, Protein RecA (Mycobacterium tuberculosis, UniProt P9WHJ3).
T3 sequence (P9WHJ3 whole entry): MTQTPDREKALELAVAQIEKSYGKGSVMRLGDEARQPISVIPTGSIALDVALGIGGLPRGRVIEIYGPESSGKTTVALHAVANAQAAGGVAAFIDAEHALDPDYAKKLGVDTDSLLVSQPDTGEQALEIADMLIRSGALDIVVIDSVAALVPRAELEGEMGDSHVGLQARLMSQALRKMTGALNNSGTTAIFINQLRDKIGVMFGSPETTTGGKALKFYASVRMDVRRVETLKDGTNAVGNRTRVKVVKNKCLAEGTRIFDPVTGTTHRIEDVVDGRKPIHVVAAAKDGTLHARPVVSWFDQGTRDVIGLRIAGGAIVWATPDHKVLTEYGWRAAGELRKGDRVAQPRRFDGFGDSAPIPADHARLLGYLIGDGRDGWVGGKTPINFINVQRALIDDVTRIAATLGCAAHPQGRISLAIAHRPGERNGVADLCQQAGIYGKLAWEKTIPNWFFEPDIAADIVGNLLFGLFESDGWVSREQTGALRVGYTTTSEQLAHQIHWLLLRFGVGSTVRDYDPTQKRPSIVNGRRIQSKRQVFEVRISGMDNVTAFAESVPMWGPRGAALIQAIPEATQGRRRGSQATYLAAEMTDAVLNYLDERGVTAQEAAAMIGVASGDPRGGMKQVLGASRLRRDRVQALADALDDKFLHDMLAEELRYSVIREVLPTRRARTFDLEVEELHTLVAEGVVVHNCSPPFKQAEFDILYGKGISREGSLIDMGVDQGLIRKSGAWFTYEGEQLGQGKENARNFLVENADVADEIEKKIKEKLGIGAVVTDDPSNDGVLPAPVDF
In words: Fluorescence Cell-Free Homogeneous Dose Retest to Identify Inhibitors of RecA-Intein Splicing Activity. [Related pubchem assays (depositor defined):AID2097, AID2223, AID489010, AID492950]. It is filed as functional.

The target in assay [6] is T4, Corticotropin-releasing factor receptor 2/Corticotropin-releasing factor-binding protein (Homo sapiens, UniProt P24387+Q13324).
T4 sequence (Q13324 whole entry): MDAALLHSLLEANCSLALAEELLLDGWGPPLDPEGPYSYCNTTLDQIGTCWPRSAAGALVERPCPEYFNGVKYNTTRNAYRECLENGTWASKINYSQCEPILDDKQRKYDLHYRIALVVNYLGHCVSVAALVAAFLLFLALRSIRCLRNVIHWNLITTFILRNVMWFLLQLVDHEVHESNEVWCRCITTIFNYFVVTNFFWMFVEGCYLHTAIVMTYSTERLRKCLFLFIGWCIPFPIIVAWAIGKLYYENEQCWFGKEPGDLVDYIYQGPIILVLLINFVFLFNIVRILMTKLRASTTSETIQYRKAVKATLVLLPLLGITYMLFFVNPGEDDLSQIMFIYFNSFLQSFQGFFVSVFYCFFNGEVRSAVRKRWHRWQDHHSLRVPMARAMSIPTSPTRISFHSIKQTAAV
T4 sequence (P24387 whole entry): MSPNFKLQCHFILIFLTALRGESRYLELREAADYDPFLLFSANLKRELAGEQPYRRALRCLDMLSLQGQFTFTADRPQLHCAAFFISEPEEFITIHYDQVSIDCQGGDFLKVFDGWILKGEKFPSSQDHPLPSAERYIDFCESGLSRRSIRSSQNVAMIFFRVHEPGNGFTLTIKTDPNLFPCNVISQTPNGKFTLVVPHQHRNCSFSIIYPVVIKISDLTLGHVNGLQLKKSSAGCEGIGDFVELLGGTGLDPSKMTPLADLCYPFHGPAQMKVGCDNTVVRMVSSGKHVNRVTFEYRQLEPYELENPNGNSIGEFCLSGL
In words: activators of CRF receptor 2 with binding protein – uHTS hits, confirmation (AID 602473). The format is functional. Particulars: read-out: EC50_Mean.

The target of assay [7] is T4, Corticotropin-releasing factor receptor 2/Corticotropin-releasing factor-binding protein. In words: Dose Response confirmation of uHTS hits for small molecule antagonists of the CRF-binding protein and CRF-R2 receptor complex. It is filed as functional. Particulars: read-out: IC50_Mean.
A short description of assay [8]: blockers of CRF-binding protein–CRF-R2 complex – cell-based, uHTS hits, 384-well, dose response (AID 651639). It is filed as functional, Homo sapiens. Particulars: read-out: IC50_Mean.
For assay [9], the target named is T5, Rac GTPase-activating protein 1 (Homo sapiens, UniProt Q9H0H5).
T5 sequence (Q9H0H5 whole entry): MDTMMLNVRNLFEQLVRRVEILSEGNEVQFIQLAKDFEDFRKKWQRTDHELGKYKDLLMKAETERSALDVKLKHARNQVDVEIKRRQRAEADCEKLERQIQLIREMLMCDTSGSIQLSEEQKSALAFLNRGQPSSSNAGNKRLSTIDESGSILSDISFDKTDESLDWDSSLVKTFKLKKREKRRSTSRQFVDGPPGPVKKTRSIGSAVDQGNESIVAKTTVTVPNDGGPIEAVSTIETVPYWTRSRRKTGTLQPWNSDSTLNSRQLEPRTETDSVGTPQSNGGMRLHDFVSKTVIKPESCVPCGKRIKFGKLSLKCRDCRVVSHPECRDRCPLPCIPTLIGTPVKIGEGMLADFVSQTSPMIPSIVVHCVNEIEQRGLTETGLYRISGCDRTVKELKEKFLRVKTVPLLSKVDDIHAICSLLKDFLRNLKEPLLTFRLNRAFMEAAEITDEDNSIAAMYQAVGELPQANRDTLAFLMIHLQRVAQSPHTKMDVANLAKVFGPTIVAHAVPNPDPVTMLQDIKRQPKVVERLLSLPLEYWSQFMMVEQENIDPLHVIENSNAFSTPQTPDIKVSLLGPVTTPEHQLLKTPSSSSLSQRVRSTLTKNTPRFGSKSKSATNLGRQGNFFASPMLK
In words: blockers of MgcRacGAP-driven Rac1 GTP hydrolysis – biochemical, ADP Hunter fluorescence, primary and confirmatory, confirmation (AID 624330). It is filed as functional.

Assay [10] has as its target T6, Mannose-6-phosphate isomerase (Homo sapiens, UniProt P34949).
T6 sequence (P34949 whole entry): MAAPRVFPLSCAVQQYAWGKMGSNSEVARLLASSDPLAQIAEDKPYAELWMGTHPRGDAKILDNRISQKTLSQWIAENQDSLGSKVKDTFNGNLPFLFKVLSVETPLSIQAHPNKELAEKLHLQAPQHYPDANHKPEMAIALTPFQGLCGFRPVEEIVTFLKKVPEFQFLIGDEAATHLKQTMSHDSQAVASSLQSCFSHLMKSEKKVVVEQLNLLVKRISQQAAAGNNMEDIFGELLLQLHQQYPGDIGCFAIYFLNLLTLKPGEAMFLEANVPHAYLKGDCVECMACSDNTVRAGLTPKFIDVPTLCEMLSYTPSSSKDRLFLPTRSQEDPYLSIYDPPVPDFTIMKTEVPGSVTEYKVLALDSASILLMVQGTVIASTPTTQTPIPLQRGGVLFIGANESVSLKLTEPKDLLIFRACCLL
The experiment in a line: MPI inhibition at elevated mannose 6-phosphate – biochemical, fluorescence intensity, high mannose 6-phosphate, primary screen (AID 1220).

The next assay concerns the target SUMO-activating enzyme (Homo sapiens, UniProt Q9UBT2). The experiment in a line: blockers of SAE1/SAE2–UBC9 SUMO transfer – biochemical, HTRF, uHTS, primary screen (AID 2006). It is filed as protein-complex assay.

Activity calls are given as the source filed them. Bounds are passed on as bounds.

Sequence of SUMO-activating enzyme (Q9UBE0 whole entry): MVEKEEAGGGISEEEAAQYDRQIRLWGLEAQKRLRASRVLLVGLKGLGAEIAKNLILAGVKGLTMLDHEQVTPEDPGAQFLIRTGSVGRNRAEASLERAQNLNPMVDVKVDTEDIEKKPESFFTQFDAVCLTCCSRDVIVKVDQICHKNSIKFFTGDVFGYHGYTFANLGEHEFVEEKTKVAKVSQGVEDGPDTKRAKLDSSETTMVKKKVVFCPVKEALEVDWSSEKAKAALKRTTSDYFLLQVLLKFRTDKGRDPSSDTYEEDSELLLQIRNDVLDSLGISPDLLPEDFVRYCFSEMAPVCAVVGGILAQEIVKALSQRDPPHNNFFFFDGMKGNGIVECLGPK
Sequence of SUMO-activating enzyme (Q9UBT2 whole entry): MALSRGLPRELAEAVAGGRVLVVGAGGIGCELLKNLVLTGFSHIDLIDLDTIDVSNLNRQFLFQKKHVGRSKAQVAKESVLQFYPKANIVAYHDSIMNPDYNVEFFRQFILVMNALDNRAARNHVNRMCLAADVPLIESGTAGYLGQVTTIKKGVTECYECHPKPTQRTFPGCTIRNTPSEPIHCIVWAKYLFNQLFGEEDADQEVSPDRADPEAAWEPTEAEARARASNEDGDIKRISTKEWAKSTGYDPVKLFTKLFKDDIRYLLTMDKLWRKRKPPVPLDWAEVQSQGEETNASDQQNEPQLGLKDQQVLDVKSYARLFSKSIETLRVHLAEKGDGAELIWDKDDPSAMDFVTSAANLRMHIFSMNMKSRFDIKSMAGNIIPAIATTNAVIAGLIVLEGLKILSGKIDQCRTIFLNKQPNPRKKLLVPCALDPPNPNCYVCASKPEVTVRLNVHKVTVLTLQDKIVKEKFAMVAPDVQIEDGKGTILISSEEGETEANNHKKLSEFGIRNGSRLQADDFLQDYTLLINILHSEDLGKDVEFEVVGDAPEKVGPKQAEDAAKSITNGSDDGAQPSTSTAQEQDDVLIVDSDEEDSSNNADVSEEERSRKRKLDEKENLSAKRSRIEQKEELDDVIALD
Sequence of DNA dC->dU-editing enzyme APOBEC-3G (Q9HC16 whole entry): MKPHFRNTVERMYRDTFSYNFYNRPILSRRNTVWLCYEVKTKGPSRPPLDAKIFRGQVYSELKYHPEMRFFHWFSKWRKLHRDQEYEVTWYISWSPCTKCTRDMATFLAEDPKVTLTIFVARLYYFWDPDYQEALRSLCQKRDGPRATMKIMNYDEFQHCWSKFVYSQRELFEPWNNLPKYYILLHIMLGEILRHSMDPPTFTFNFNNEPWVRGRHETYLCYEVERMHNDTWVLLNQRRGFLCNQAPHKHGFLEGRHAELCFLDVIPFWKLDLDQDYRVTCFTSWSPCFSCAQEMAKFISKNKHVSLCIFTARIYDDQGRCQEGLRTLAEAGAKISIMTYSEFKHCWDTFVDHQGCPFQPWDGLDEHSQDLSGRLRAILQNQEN

For `CCOC(=O)C1(Cc2ccccc2)CCN(CC2CC=CCC2)CC1` (stereo not drawn), the EC50 in assay [1] is 13.3 µM (active).

Take `Cc1ccccc1C(=O)NNC(=S)NC(=O)COc1ccccc1`: the figures for the EC50 (in assay [2]; at Protein RecA) were 5.31 µM (active) and 17.7 µM (active), respectively. In [3], the AC50 is 29 µM (active). Further, the results for the IC50 in assay [4] and in assay [5] were 12.7 µM (active) and > 100 µM (inactive), respectively.

In the case of `COC(=O)CSc1nn(-c2ccc(F)cc2)c(=S)s1`, the EC50 in [6] is > 53 µM (inactive); in [1], 6.68 µM (active). In addition, the results for the IC50 in [7] and in assay [8] were 4.86 µM (active) and > 20 µM (inactive), respectively.

As for `COc1ccc2c(c1)-c1nc(/N=C/c3cccc(OC)c3O)sc1CC2`, the IC50 in [9] is 23.7 µM (active); in assay [10], > 50 µM (not active); at SUMO-activating enzyme it was > 100 µM (inactive).
